Laboratory results published in patent US10940139B2, “Compounds that interact with the Ras superfamily for the treatment of cancers, inflammatory diseases, rasopathies, and fibrotic disease” (Shy Therapeutics LLC, priority 2017, dated 2021).

Key:
[1] = molecular target: KRas G12D/Q61H double mutant (Homo sapiens (Human), UniProt P01116, G12D/Q61H); test: Ras GTP binding domain inhibition assay (labeled GTP); settings: at 20 μM; read-out: KRas G12D Q61H % Inh.
Method in brief: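 Labelled-GTP binding: plate-captured His-KRas protein was pre-exposed to compound for 3 h at room temperature (single 20 μM point or dilution series, 1% DMSO, Tris pH 7.5/MgCl2/DTT buffer). Cy3- or Cy5-GTP was then added for 45 min. Washed wells were read for retained fluorescence to give inhibition or IC50.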

[2] = molecular target: Rac-1 (Homo sapiens (Human), UniProt P63000); test: Rac inhibition assay (labeled GTP); format: binding; settings: read-out: Rac-1 % Inh.
[3] = molecular target: Rho-A (Homo sapiens (Human), UniProt P61586); test: Rho inhibition assay (labeled GTP); format: binding; settings: read-out: Rho-A % Inh.
Sequence of Rho-A (P61586 whole entry): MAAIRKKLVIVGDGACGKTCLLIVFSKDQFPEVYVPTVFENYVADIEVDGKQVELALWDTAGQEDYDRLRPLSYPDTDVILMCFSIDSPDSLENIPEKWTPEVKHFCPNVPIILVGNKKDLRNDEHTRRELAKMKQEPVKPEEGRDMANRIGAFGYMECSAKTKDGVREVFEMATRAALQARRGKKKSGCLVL

Sequence of KRas G12D/Q61H double mutant (P01116-2 other isoform, or with tags, fused parts or gaps G12D/Q61H): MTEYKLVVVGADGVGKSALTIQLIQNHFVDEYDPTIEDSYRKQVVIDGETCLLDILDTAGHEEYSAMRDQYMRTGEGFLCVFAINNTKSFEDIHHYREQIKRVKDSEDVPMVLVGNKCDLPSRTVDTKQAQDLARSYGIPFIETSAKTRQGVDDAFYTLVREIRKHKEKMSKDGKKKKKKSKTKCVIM

inhibition at 20 µM [1] [%]	inhibition at 20 µM [2] [%]	inhibition at 20 µM [3] [%]	SMILES
25 to 50	76 to 100	76 to 100	O=C(c1csc2c(O)nc(-c3ccccn3)nc12)N1CCNC(Cc2ccccc2)C1 (stereo not drawn) [drawing 3667]
0	76 to 100	51 to 75	O=C(NCCc1ccncc1)c1csc2nc(-c3ccccn3)nc(N3CCOCC3)c12 [drawing 3668]
1 to 25	51 to 75	25 to 50	COc1ccncc1CCNC(=O)c1csc2nc(-c3ccccn3)nc(N3CCOCC3)c12 [drawing 3669]
0	76 to 100	51 to 75	COc1cc(CCN(C)C(=O)c2csc3nc(-c4ccccn4)nc(N4CCOCC4)c23)ccn1 [drawing 3670]
1 to 25	25 to 50	25 to 50	O=C(NCCc1ccnc(O)c1)c1csc2nc(-c3ccccn3)nc(N3CCOCC3)c12 [drawing 3672]
1 to 25	51 to 75	51 to 75	O=C(NCCc1cncnc1)c1csc2nc(-c3ccccn3)nc(N3CCOCC3)c12 [drawing 3673]
0	25 to 50	25 to 50	O=C(NCCc1ccc(O)c(O)c1)c1csc2nc(-c3ccccn3)nc(N3CCOCC3)c12 [drawing 3674]
1 to 25	76 to 100	51 to 75	O=C(NCCc1nnn[nH]1)c1csc2nc(-c3ccccn3)nc(N3CCOCC3)c12 [drawing 3675]
1 to 25	51 to 75	51 to 75	N#Cc1cccc(CCNC(=O)c2csc3nc(-c4ccccn4)nc(N4CCOCC4)c23)c1 [drawing 3676]
1 to 25	76 to 100	51 to 75	CN(CCc1cccc(C#N)c1)C(=O)c1csc2nc(-c3ccccn3)nc(N3CCOCC3)c12 [drawing 3677]
1 to 25	51 to 75	51 to 75	COCCCCNC(=O)c1csc2nc(-c3ccccn3)nc(N3CCOCC3)c12 [drawing 3678]
1 to 25	76 to 100	51 to 75	COCCCCN(C)C(=O)c1csc2nc(-c3ccccn3)nc(N3CCOCC3)c12 [drawing 3679]
1 to 25	76 to 100	51 to 75	CNS(=O)(=O)CCCNC(=O)c1csc2nc(-c3ccccn3)nc(N3CCOCC3)c12 [drawing 3680]
1 to 25	51 to 75	51 to 75	COCCN(CCOC)c1nc(-c2ccccn2)nc2scc(C(=O)NCCc3ccc(OC)nc3)c12 [drawing 3681]
0	76 to 100	51 to 75	COCCCCNC(=O)c1csc2nc(-c3ccccn3)nc(N(CCOC)CCOC)c12 [drawing 3682]
1 to 25	76 to 100	51 to 75	CC(C(=O)Nc1ccnc(-c2ccccn2)n1)c1ccc(C#N)cc1 (stereo not drawn) [drawing 3683]
1 to 25	51 to 75	51 to 75	COc1ccc2c(c1)CCC2C(=O)Nc1ccnc(-c2ccccn2)n1 (stereo not drawn) [drawing 3684]
0	76 to 100	51 to 75	N#Cc1ccc(COCC(=O)Nc2ccnc(-c3ccccn3)n2)cc1 [drawing 3685]
1 to 25	76 to 100	51 to 75	Cc1cnc(-c2ccccn2)nc1NC(=O)C(C)c1ccc(C#N)cc1 (stereo not drawn) [drawing 3686]
1 to 25	76 to 100	76 to 100	CC(C(=O)Nc1nc(-c2ccccn2)nc2sccc12)c1ccc(C#N)cc1 (stereo not drawn) [drawing 3687]

More lines, now with the values behind:

SMILES	inhibition at 20 µM [1] [%]	inhibition at 20 µM [2] [%]	inhibition at 20 µM [3] [%]
N#Cc1ccc(N2CCN(C(=O)c3csc4c(O)nc(-c5ccccn5)nc34)CC2)cc1 [drawing 3645]	0	51 to 75	51 to 75
COc1cc(OC)cc(N2CCN(C(=O)c3csc4c(O)nc(-c5ccccn5)nc34)CC2)c1 [drawing 3646]	0	25 to 50	25 to 50
COc1cc(N2CCN(C(=O)c3csc4c(O)nc(-c5ccccn5)nc34)CC2)cc(OC)c1OC [drawing 3647]	0	1 to 25	25 to 50
COc1ccc(N2CCN(C(=O)c3csc4c(O)nc(-c5ccccn5)nc34)CC2)c(OC)c1 [drawing 3648]	25 to 50	76 to 100	51 to 75
O=C(c1csc2c(O)nc(-c3ccccn3)nc12)N1CCN(c2ccc(F)cc2F)CC1 [drawing 3649]	51 to 75	76 to 100	51 to 75
O=C(c1csc2c(O)nc(-c3ccccn3)nc12)N1CCN(Cc2ccccc2)CC1 [drawing 3651]	25 to 50	51 to 75	76 to 100
O=C(c1csc2c(O)nc(-c3ccccn3)nc12)N1CCN(Cc2ccc(O)cc2)CC1 [drawing 3653]	1 to 25	51 to 75	25 to 50
O=C(c1csc2c(O)nc(-c3ccccn3)nc12)N1CCN(Cc2ccc(O)c(Cl)c2)CC1 [drawing 3654]	25 to 50	76 to 100	76 to 100
O=C(c1csc2c(O)nc(-c3ccccn3)nc12)N1CCOC(c2ccccc2)C1 (stereo not drawn) [drawing 3655]	1 to 25	25 to 50	51 to 75
COc1ccccc1C1CN(C(=O)c2csc3c(O)nc(-c4ccccn4)nc23)CCO1 (stereo not drawn) [drawing 3656]	51 to 75	76 to 100	76 to 100
COc1ccc(C2CN(C(=O)c3csc4c(O)nc(-c5ccccn5)nc34)CCO2)cc1 (stereo not drawn) [drawing 3657]	25 to 50	25 to 50	25 to 50
O=C(c1csc2c(O)nc(-c3ccccn3)nc12)N1CCOC(c2cccc(Cl)c2)C1 (stereo not drawn) [drawing 3659]	1 to 25	1 to 25	51 to 75
O=C(c1csc2c(O)nc(-c3ccccn3)nc12)N1CCOC(Cc2ccccc2)C1 (stereo not drawn) [drawing 3660]	25 to 50	76 to 100	76 to 100
COc1ccccc1C1CN(C(=O)c2csc3c(O)nc(-c4ccccn4)nc23)CCN1 (stereo not drawn) [drawing 3661]	25 to 50	1 to 25	76 to 100
COc1ccc(C2CN(C(=O)c3csc4c(O)nc(-c5ccccn5)nc34)CCN2)cc1 (stereo not drawn) [drawing 3663]	1 to 25	76 to 100	76 to 100
Cc1ccccc1C1CN(C(=O)c2csc3c(O)nc(-c4ccccn4)nc23)CCN1 (stereo not drawn) [drawing 3664]	25 to 50	76 to 100	76 to 100
O=C(c1csc2c(O)nc(-c3ccccn3)nc12)N1CCNC(c2ccccc2F)C1 (stereo not drawn) [drawing 3665]	25 to 50	76 to 100	76 to 100
Cn1cc(C2CN(C(=O)c3csc4c(O)nc(-c5ccccn5)nc34)CCN2)cn1 (stereo not drawn) [drawing 3666]	1 to 25	76 to 100	76 to 100
